In patent EP4706657A1, “COMBINATION THERAPY OF PEXIDARTINIB AND NINTEDANIB FOR PREVENTION OR TREATMENT OF PULMONARY FIBROSIS” (Korea Institute of Radiological & Medical Sciences, priority 2023, dated 2024):

Experiments:
[1] = tested on: radiation-induced pulmonary fibrosis; assay: Inhibitory effect on radiation-induced pulmonary fibrosis in mice (Micro-CT, H&E and Masson's Trichrome staining); assay type: in vivo; conditions: SBRT 90 Gy, 4 mm collimator, male C57BL/6 mice; each drug 60 mg/kg orally daily, starting one hour before irradiation; Micro-CT two weeks after radiation exposure; compared to untreated group
Excerpt: Seven-week-old male C57BL/6 mice were divided into groups treated with IM-1, nintedanib, and the combination of the two drugs (IM-1 + nintedanib). One hour before stereotactic body radiation therapy (SBRT; 90 Gy, 4 mm collimator), the drugs were orally administered to the mice. The degree of pulmonary fibrosis and the inhibitory effect on radiation-induced lung injury were observed two weeks after radiation exposure. The IM-1 and nintedanib groups were each administered the respective drug daily at a dose of 60 mg/kg, and the combination group was administered both drugs daily at 60 mg/kg each. Additionally, to analyze the degree of inflammatory response and the degree of fibrosis, H&E staining and Masson's Trichrome staining were performed.

[2] = tested on: pulmonary fibrosis induced by bleomycin; assay: Inhibitory effect on pulmonary fibrosis induced by bleomycin in mice (Micro-CT, H&E and Masson's Trichrome staining, survival); assay type: in vivo; conditions: bleomycin sulfate 1.5 U/kg, male C57BL/6 mice; each drug 60 mg/kg orally once daily for two weeks starting 14 days after bleomycin; Micro-CT 4 weeks after bleomycin; compared to untreated group
Method: Each drug was administered starting 14 days after the administration of bleomycin. The control drugs, nintedanib and pexidartinib (IM-1), were both administered at a dose of 60 mg/kg, and the co-administration group was orally administered nintedanib (60 mg/kg) with IM-1 (60 mg/kg) once daily for two weeks (a total of 13 administrations). Additionally, to analyze the degree of inflammatory response and the degree of fibrosis, H&E staining and Masson's Trichrome staining were performed. In addition, the mouse survival rate was compared in FIG. 3.

Row | SMILES | degree of fibrosis [1] | degree of fibrosis [2]
1 | FC(F)(F)c1ccc(CNc2ccc(Cc3c[nH]c4ncc(Cl)cc34)cn2)cn1 [IM-1, 5-((5-chloro-1H-pyrrolo[2,3-b]pyridin-3-yl)methyl)-N-((6-(trifluoromethyl)pyridin-3-yl)methyl)pyridin-2-amine] | a reduction in the degree of fibrosis | a reduction in the degree of fibrosis
2 | COC(=O)c1ccc2c(c1)NC(=O)/C2=C(\Nc1ccc(N(C)C(=O)CN2CCN(C)CC2)cc1)c1ccccc1 [nintedanib, methyl (3Z)-3-{[(4-{methyl[(4-methylpiperazin-1-yl)acetyl]amino}phenyl)amino](phenyl)methylidene}-2-oxo-2,3-dihydro-1H-indole-6-carboxylate] | a reduction in the degree of fibrosis | a reduction in the degree of fibrosis
